In ChEMBL document CHEMBL5537197, “Discovery of Novel Coumarin-quinolinium Derivatives as Pan-KRAS Translation Inhibitors by Targeting 5'-UTR RNA G-Quadruplexes” (J Med Chem, 2024):
Activity calls are given as the source filed them. The calls are words filed in the database; no cut-off is given here.

Key:
[1] = tested on: PANC-1; assay: Cytotoxicity against human PANC-1 cells harboring KRAS G12D mutant assessed as cell growth inhibition incubated for 24 hrs by MTT assay; assay type: functional, cell-based; conditions: PANC-1, 24 h
[2] = biological target: GTPase KRas (Homo sapiens) (UniProt P01116); assay: Inhibition of KRAS in human PANC-1 cells at 2.5 uM incubated for 24 hrs by Western blot analysis; assay type: cell-based
[3] = tested on: U-87 MG; assay: Cytotoxicity against human U-87 MG cells harboring wild-type KRAS assessed as cell growth inhibition incubated for 24 hrs by MTT assay; assay type: functional, cell-based, U-87MG ATCC
[4] = tested on: GTPase KRas (Homo sapiens), P01116 [G12C]; assay: Inhibition of KRAS G12C mutant in human MIA PaCa-2 cells incubated for 24 hrs by Western blot analysis; assay type: cell-based; conditions: dose <= 5.0 µM
[5] = tested on: GTPase KRas (Homo sapiens), P01116 [G12D]; assay: Inhibition of KRAS G12D mutant in human PANC-1 cells incubated for 24 hrs by Western blot analysis; assay type: cell-based; conditions: dose <= 5.0 µM
[6] = tested on: GTPase KRas (Homo sapiens), P01116 [G12D]; assay: Inhibition of KRAS G12D mutant in human PANC-1 cells at 2.5 uM by Western blot analysis; assay type: cell-based; conditions: time <= 48.0 hrs, TDE = time-dependent effect
[7] = tested on: GTPase KRas (Homo sapiens), P01116 [G12C]; assay: Inhibition of KRAS G12C mutant in human NCI-H358 cells at 2.5 uM by Western blot analysis; assay type: cell-based; conditions: time <= 48.0 hrs, TDE = time-dependent effect
[8] = tested on: NCI-H358; assay: Effect on KRAS mRNA level in human NCI-H358 cells harboring KRAS G12C mutant at upto 5 uM incubated upto 48 hrs by RT-qPCR analysis; assay type: functional, cell-based
[9] = tested on: Quadruplex DNA; assay: Binding affinity to KRAS DNA G-Quadruplex (unknown origin) assessed as melting temperature at 25 uM at 25 to 95 degreeC by CD spectroscopy (reference value: 50.1 degreeC); assay type: nucleic-acid assay
[10] = tested on: Quadruplex DNA; assay: Disruption of DHX36/KRAS rG-Quadruplex (unknown origin) by ELISA; assay type: nucleic-acid assay; conditions: dose 20.0 µM
[11] = biological target: GTPase KRas (Homo sapiens) (UniProt P01116); assay: Inhibition of KRAS in human MIA PaCa-2 cells assessed as decrease in MEK phosphorylation incubated for 24 hrs by Western blot analysis; assay type: cell-based; conditions: dose 1.25-5 µM
[12] = biological target: GTPase KRas (Homo sapiens) (UniProt P01116); assay: Inhibition of KRAS in human MIA PaCa-2 cells assessed as decrease in ERK phosphorylation incubated for 24 hrs by Western blot analysis; assay type: cell-based; conditions: dose 1.25-5 µM
[13] = biological target: GTPase KRas (Homo sapiens) (UniProt P01116); assay: Inhibition of KRAS in human MIA PaCa-2 cells assessed as decrease in ERK phosphorylation at 2.5 uM by Western blot analysis; assay type: cell-based; conditions: time <= 24.0 hrs, TDE = time-dependent effect
[14] = tested on: MIA PaCa-2; assay: Effect on total protein level in human MIA PaCa-2 cells at 2.5 uM incubated for upto 24 hrs by Western blot analysis; assay type: functional, cell-based
[15] = tested on: MIA PaCa-2; assay: Inhibition of cell proliferation of human MIA PaCa-2 cells at 0.32 to 1.25 uM incubated for 10 days by colony formation assay relative to control; assay type: functional; conditions: dose 0.32-1.25 µM, time 10 day
[16] = tested on: MIA PaCa-2; assay: Induction of cell cycle arrest at G2/M phase in human MIA PaCa-2 cells incubated for 24 hrs by PI staining based HCS analysis; assay type: functional; conditions: dose 1.25-5 µM
[17] = tested on: MIA PaCa-2; assay: Antitumor activity against human MIA PaCa-2 cells xenografted in BALB/C-nu/nu mouse model assessed as decrease of tumor volume administered intraperitoneally everyday for 18 days; assay type: functional, cell-based; conditions: dose 2.5-5 mg/kg, route ip, time 18.0 day
[18] = tested on: MIA PaCa-2; assay: Antitumor activity against human MIA PaCa-2 cells xenografted in BALB/C-nu/nu mouse model assessed as reduction in tumor weight at 2.5 to 5 mg/kg,ip everyday for 18 days; assay type: functional, organism-based; conditions: dose 2.5-5 mg/kg, time 18.0 day
[19] = tested on: MIA PaCa-2; assay: Antitumor activity against human MIA PaCa-2 cells xenografted in BALB/C-nu/nu mouse model assessed as tumor growth inhibition at 2.5 mg/kg,ip everyday for 18 days relative to control; assay type: functional; conditions: MIA PaCa-2, 432 h, time 18 day, read-out: TGI
[20] = tested on: MIA PaCa-2; assay: Antitumor activity against human MIA PaCa-2 cells xenografted in BALB/C-nu/nu mouse model assessed as tumor growth inhibition at 5 mg/kg,ip everyday for 18 days relative to control; assay type: functional; conditions: MIA PaCa-2, 432 h, time 18 day, read-out: TGI
[21] = Toxicity in BALB/C-nu/nu mouse model xenografted with human MIA PaCa-2 cells assessed as body weight change at 2.5 to 5 mg/kg,ip everyday for 18 days; assay type: organism-based; conditions: in vivo, 432 h, dose 2.5-5 mg/kg, time 18 day
[22] = Toxicity in BALB/C-nu/nu mouse model xenografted with human MIA PaCa-2 cells assessed as toxic sigs in viscera at 2.5 to 5 mg/kg,ip everyday for 18 days; assay type: organism-based; conditions: in vivo, 432 h, dose 2.5-5 mg/kg, time 18 day
[23] = tested on: MIA PaCa-2; assay: In vivo inhibition of KRAS in human MIA PaCa-2 cells xenografted in BALB/C-nu/nu mouse model at 2.5 to 5 mg/kg,ip everyday for 18 days by IHC analysis; assay type: functional, organism-based; conditions: dose 2.5-5 mg/kg, time 18.0 day

Sequence of GTPase KRas (Homo sapiens) (P01116 whole entry, looked up): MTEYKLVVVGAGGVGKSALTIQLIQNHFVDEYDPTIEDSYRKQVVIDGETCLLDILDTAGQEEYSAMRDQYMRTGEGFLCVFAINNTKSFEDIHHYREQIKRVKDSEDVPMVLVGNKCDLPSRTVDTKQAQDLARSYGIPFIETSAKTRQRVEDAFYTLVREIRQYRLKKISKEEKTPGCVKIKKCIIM
Sequence of GTPase KRas (Homo sapiens), P01116 [G12C] (P01116 whole entry G12C): as the sequence (P01116 whole entry, looked up) above, with G12C counted along it
Sequence of GTPase KRas (Homo sapiens), P01116 [G12D] (P01116 whole entry G12D, looked up): as the sequence (P01116 whole entry, looked up) above, with G12D counted along it

CCN(CC)c1ccc2cc(/C=C/c3ccc4cc(F)c(NCCN5CCCC5)cc4[n+]3C)c(=O)oc2c1.[I-]
IC50 [1]: 5.6 µM
inhibition [2]: Active
IC50 [3]: > 40 µM
inhibition [4]: Dose-Dependent Effect
inhibition [5]: Dose-Dependent Effect
inhibition [6]: Tde
inhibition [7]: Tde
Activity [8]: inactive
Tm [9]: 52 °C
Activity [10]: Dose-Dependent Effect
inhibition [11]: Dose-Dependent Effect
inhibition [12]: Dose-Dependent Effect
inhibition [13]: Tde
Activity [14]: inactive
inhibition (INH) [15]: 100%
Activity [16]: Dose-Dependent Effect
Activity [17]: Dose-Dependent Effect
Activity [18]: Active
inhibition in vivo at 2.5 mg/kg [19]: 62%
inhibition in vivo at 5 mg/kg [20]: 70.3%
Activity [21]: Non-Toxic
Activity [22]: Non-Toxic
Activity [23]: Active
